Measurements: patent publication US9493411B2 (AbbVie Inc., priority 2013, dated 2016)

What was measured:
BRD4 (BDI_K57-E168) = target: T1, BRD4 (BDI_K57-E168) (Homo sapiens, UniProt O60885); assay: TR-FRET bromodomain binding assay, BRD4 first bromodomain; conditions: His-tagged BD1, Alexa647-labeled probe 100 nM; Ki calculated from IC50
T1 construct: BD1: amino acids K57-E168; made in house
Description: (§1) A time-resolved fluorescence resonance energy transfer (TR-FRET) assay was used to determine the affinities of compounds of the Examples listed in Table 1 for each bromodomain of BRD4. His-tagged first (BD1: amino acids K57-E168) and second (BD2: amino acids E352-E168) bromodomains of BRD4 were expressed and purified. An Alexa647-labeled BET-inhibitor was used as the fluorescent probe in the assay.
(§2) Compound dilution series were prepared in DMSO via a 3-fold serial dilution from 2.5 mM to 42 nM. Compounds were then diluted 6:100 in assay buffer (20 mM Sodium Phosphate, pH 6.0, 50 mM NaCl, 1 mM Ethylenediaminetetraacetic acid disodium salt dihydrate, 0.01% Triton X-100, 1 mM DL-Dithiothreitol) to yield 3× working solutions. Six microliters (μL) of the working solution was then transferred to white, low-volume assay plates (Costar #3673). A 1.5× assay mixture containing His-tagged bromodomain, Europium-conjugated anti-His antibody (Invitrogen PV5596) and the Alexa-647-conjugated probe molecule was also prepared. Twelve μL of this solution were added to the assay plate to reach a final volume of 18 μL. The final concentration of 1× assay buffer contains 2% DMSO, 50 μM-0.85 nM compound, 8 nM His-tagged bromodomain, 1 nM Europium-conjugated anti-His-tag antibody and 100 nM or 30 nM probe (for BDI or BDII, respectively). After a one-hour incubation at room temperature, TR-FRET ratios were determined using an Envision multilabel plate reader (Ex 340, Em […]).
(§3) TR-FRET data were normalized to the means of 24 no-compound controls (“high”) and 8 controls containing 1 μM un-labeled probe (“low”). Percent inhibition was plotted as a function of compound concentration and the data were fit with the 4 parameter logistic equation to obtain IC50s. Inhibition constants (Ki) were calculated from the IC50s, probe Kd and probe concentration. Typical Z′ values were between 0.65 and 0.75. The minimum significant ratio was determined to evaluate assay reproducibility (Eastwood et al., (2006) J Biomol Screen, 11: 253-261). The MSR was determined to be 2.03 for BDI and 1.93 for BDII, and a moving MSR (last six run MSR overtime) for both BDI and BDII was typically <3.

BRD4 (BDII_E352-M457) = target: T2, BRD4 (BDII_E352-M457) (Homo sapiens, UniProt O60885); assay: TR-FRET bromodomain binding assay, BRD4 second bromodomain; conditions: His-tagged BD2, Alexa647-labeled probe 30 nM; Ki calculated from IC50
T2 construct: made in house
Description: as §1, §2, §3

Structure (SMILES) | Ki (BRD4 (BDI_K57-E168)) | Ki (BRD4 (BDII_E352-M457))
Cc1ccccc1CNc1ccccc1-c1cc(C(N)=O)c(C)[nH]1 [Example 24, 2-methyl-5-{2-[(2-methylbenzyl)amino]phenyl}-1H-pyrrole-3-carboxamide] | 1060 nM | 1.19 µM
Cc1cccc(CNc2ccccc2-c2cc(C(N)=O)c(C)[nH]2)c1 [Example 25, 2-methyl-5-{2-[(3-methylbenzyl)amino]phenyl}-1H-pyrrole-3-carboxamide] | 1260 nM | 2.16 µM
Cc1[nH]c(-c2ccccc2NCC2CC2)cc1C(N)=O [Example 26, 5-{2-[(cyclopropylmethyl)amino]phenyl}-2-methyl-1H-pyrrole-3-carboxamide] | 860 nM | 7.53 µM
Cc1[nH]c(-c2ccccc2NCc2ccc(C(F)(F)F)cc2)cc1C(N)=O [Example 28, 2-methyl-5-(2-{[4-(trifluoromethyl)benzyl]amino}phenyl)-1H-pyrrole-3-carboxamide] | 9450 nM | 13.6 µM
Cc1ccc(CNc2ccccc2-c2cc(C(N)=O)c(C)[nH]2)cc1 [Example 29, 2-methyl-5-{2-[(4-methylbenzyl)amino]phenyl}-1H-pyrrole-3-carboxamide] | 2770 nM | 4.41 µM
COc1ccc(CNc2ccccc2-c2cc(C(N)=O)c(C)[nH]2)cc1 [Example 30, 5-{2-[(4-methoxybenzyl)amino]phenyl}-2-methyl-1H-pyrrole-3-carboxamide] | 3060 nM | 3.48 µM
Cc1[nH]c(-c2ccccc2NCc2ccc(C#N)cc2)cc1C(N)=O [Example 31, 5-{2-[(4-cyanobenzyl)amino]phenyl}-2-methyl-1H-pyrrole-3-carboxamide] | 1400 nM | 6.23 µM
Cc1[nH]c(-c2ccccc2NCc2ccc(Br)cc2)cc1C(N)=O [Example 32, 5-{2-[(4-bromobenzyl)amino]phenyl}-2-methyl-1H-pyrrole-3-carboxamide] | 5170 nM | 10.3 µM
Cc1[nH]c(-c2ccccc2NCc2ccc(Cl)c(Cl)c2)cc1C(N)=O [Example 33, 5-{2-[(3,4-dichlorobenzyl)amino]phenyl}-2-methyl-1H-pyrrole-3-carboxamide] | 9630 nM | 13.1 µM
Cc1[nH]c(-c2ccccc2NCc2ccccc2Cl)cc1C(N)=O [Example 34, 5-{2-[(2-chlorobenzyl)amino]phenyl}-2-methyl-1H-pyrrole-3-carboxamide] | 1400 nM | 3.45 µM
Cc1[nH]c(-c2ccccc2NCc2cccc(Cl)c2)cc1C(N)=O [Example 35, 5-{2-[(3-chlorobenzyl)amino]phenyl}-2-methyl-1H-pyrrole-3-carboxamide] | 2700 nM | 3.26 µM
Cc1[nH]c(-c2ccccc2NCC2CCCCC2)cc1C(N)=O [Example 36, 5-{2-[(cyclohexylmethyl)amino]phenyl}-2-methyl-1H-pyrrole-3-carboxamide] | 521 nM | 1.16 µM
Cc1[nH]c(-c2ccccc2NCc2ccc(N(C)C)cc2)cc1C(N)=O [Example 37, 5-(2-{[4-(dimethylamino)benzyl]amino}phenyl)-2-methyl-1H-pyrrole-3-carboxamide] | 4680 nM | 3.58 µM
Cc1[nH]c(-c2ccccc2NCc2cc(Cl)cc(Cl)c2)cc1C(N)=O [Example 39, 5-{2-[(3,5-dichlorobenzyl)amino]phenyl}-2-methyl-1H-pyrrole-3-carboxamide] | 3820 nM | 4.98 µM
Cc1[nH]c(-c2ccccc2NCC2CCN(C(=O)OC(C)(C)C)CC2)cc1C(N)=O [Example 41, tert-butyl 4-({[2-(4-carbamoyl-5-methyl-1H-pyrrol-2-yl)phenyl]amino}methyl)piperidine-1-carboxylate] | 480 nM | 16.5 µM
Cc1[nH]c(-c2ccccc2NCc2ccc(N)cc2)cc1C(N)=O [Example 52, 5-{2-[(4-aminobenzyl)amino]phenyl}-2-methyl-1H-pyrrole-3-carboxamide] | 3080 nM | 16.4 µM
Cc1[nH]c(-c2ccccc2NCc2ccc(CO)o2)cc1C(N)=O [Example 55, 5-[2-({[5-(hydroxymethyl)furan-2-yl]methyl}amino)phenyl]-2-methyl-1H-pyrrole-3-carboxamide] | 722 nM | 4.94 µM

Structure (SMILES) | Ki (BRD4 (BDI_K57-E168)) | Ki (BRD4 (BDII_E352-M457))
CC(=O)Nc1ccc(CN(CC2CCCC2)c2ccccc2-c2cc(C(N)=O)c(C)[nH]2)cc1 [Example 59, 5-(2-{[4-(acetylamino)benzyl](cyclopentylmethyl)amino}phenyl)-2-methyl-1H-pyrrole-3-carboxamide] | 2130 nM | 3.31 µM
Cc1[nH]c(-c2ccccc2N(Cc2cccs2)CC2CCCC2)cc1C(N)=O [Example 60, 5-{2-[(cyclopentylmethyl)(thiophen-2-ylmethyl)amino]phenyl}-2-methyl-1H-pyrrole-3-carboxamide] | 5100 nM | 20.5 µM
Cc1[nH]c(-c2ccccc2NC2CCNCC2)cc1C(N)=O [Example 65, 2-methyl-5-[2-(piperidin-4-ylamino)phenyl]-1H-pyrrole-3-carboxamide] | 634 nM | 12.2 µM
Cc1[nH]c(-c2ccccc2NC2CCC2)cc1C(N)=O [Example 66, 5-[2-(cyclobutylamino)phenyl]-2-methyl-1H-pyrrole-3-carboxamide] | 1760 nM | 6.15 µM
Cc1[nH]c(-c2ccccc2NC2Cc3ccccc3C2)cc1C(N)=O [Example 69, 5-[2-(2,3-dihydro-1H-inden-2-ylamino)phenyl]-2-methyl-1H-pyrrole-3-carboxamide] | 663 nM | 2.34 µM
Cc1[nH]c(-c2ccccc2NC2CCCCCC2)cc1C(N)=O [Example 73, 5-[2-(cycloheptylamino)phenyl]-2-methyl-1H-pyrrole-3-carboxamide] | 862 nM | 3.83 µM
Cc1[nH]c(-c2ccccc2NC2CCc3ccccc3C2)cc1C(N)=O (centres unmarked) [Example 74, 2-methyl-5-[2-(1,2,3,4-tetrahydronaphthalen-2-ylamino)phenyl]-1H-pyrrole-3-carboxamide] | 526 nM | 1.65 µM
Cc1[nH]c(-c2ccccc2Nc2ccccc2)cc1C(N)=O [Example 77, 2-methyl-5-[2-(phenylamino)phenyl]-1H-pyrrole-3-carboxamide] | 172 nM | 0.983 µM
Cc1[nH]c(-c2ccccc2NS(=O)(=O)c2ccccc2)cc1C(N)=O [Example 78, 2-methyl-5-{2-[(phenylsulfonyl)amino]phenyl}-1H-pyrrole-3-carboxamide] | 3990 nM | 0.712 µM
Cc1[nH]c(-c2ccccc2NS(=O)(=O)C2CCCCC2)cc1C(N)=O [Example 79, 5-{2-[(cyclohexylsulfonyl)amino]phenyl}-2-methyl-1H-pyrrole-3-carboxamide] | 904 nM | 2.65 µM
Cc1[nH]c(-c2ccccc2NS(=O)(=O)c2cccnc2)cc1C(N)=O [Example 80, 2-methyl-5-{2-[(pyridin-3-ylsulfonyl)amino]phenyl}-1H-pyrrole-3-carboxamide] | 9390 nM | 13.4 µM
Cc1[nH]c(-c2ccccc2NS(=O)(=O)CCC(F)(F)F)cc1C(N)=O [Example 82, 2-methyl-5-(2-{[(3,3,3-trifluoropropyl)sulfonyl]amino}phenyl)-1H-pyrrole-3-carboxamide] | 2960 nM | 8.72 µM
Cc1[nH]c(-c2ccccc2NS(=O)(=O)CC(F)(F)F)cc1C(N)=O [Example 86, 2-methyl-5-(2-{[(2,2,2-trifluoroethyl)sulfonyl]amino}phenyl)-1H-pyrrole-3-carboxamide] | 3030 nM | 2.6 µM
Cc1[nH]c(-c2ccccc2Oc2ccccc2)cc1C(N)=O [Example 89, 2-methyl-5-(2-phenoxyphenyl)-1H-pyrrole-3-carboxamide] | 122 nM | 0.351 µM
Cc1[nH]c(-c2c(N)cccc2Oc2ccccc2)cc1C(N)=O [Example 91, 5-(2-amino-6-phenoxyphenyl)-2-methyl-1H-pyrrole-3-carboxamide] | 331 nM | 3.35 µM
Cc1noc(C)c1-c1ccc(-c2cc(C(N)=O)c(C)[nH]2)cc1 [Example 92, 5-[4-(3,5-dimethyl-1,2-oxazol-4-yl)phenyl]-2-methyl-1H-pyrrole-3-carboxamide] | 1690 nM | 2.43 µM
COC(=O)CCNC(=O)c1cc(-c2ccc(-c3c(C)noc3C)cc2)[nH]c1C [Example 93, methyl N-({5-[4-(3,5-dimethyl-1,2-oxazol-4-yl)phenyl]-2-methyl-1H-pyrrol-3-yl}carbonyl)-beta-alaninate] | 5090 nM | 6.42 µM
